The record followed here is patent US20110319416A1, “Subunit Selective NMDA Receptor Antagonists For The Treatment Of Neurological Conditions” (EMORY UNIVERSITY, priority 2009, published 2011).

Format in all cases: cell-based
Experiment [1] deals with NR1/NR2B (Rattus norvegicus, UniProt P35439+Q00960). As to the kind of experiment: Two electrode voltage clamp, Xenopus oocytes expressing recombinant NR1/NR2B. As to the method: (§1) Quality of synthesized cRNA was assessed by gel electrophoresis, and quantity was estimated by spectroscopy and gel electrophoresis. Stage V and VI oocytes were surgically removed from the ovaries of large, well-fed and healthy Xenopus laevis anesthetized with 3-amino-benzoic acid ethyl ester (3 gm/l) as previously described. Clusters of isolated oocytes were incubated with 292 U/ml Worthington (Freehold, N.J.) type IV collagenase or 1.3 mg/ml collagenase (Life Technologies, Gaithersburg, MD; 17018-029) for 2 hr in Ca^2+-free solution comprised of (in mM) 115 NaCl, 2.5 KCl, and 10 HEPES, pH 7.5, with slow agitation to remove the follicular cell layer. Oocytes were then washed extensively in the same solution supplemented with 1.8 mM CaCl2 and maintained in Barth's solution comprised of (in mM): 88 NaCl, 1 KCl, 2.4 NaHCO3, 10 HEPES, 0.82 MgSO4, 0.33 Ca(NO3)2, and 0.91 CaCl2 and supplemented with 100 μg/m1 gentamycin, 10 μg/ml streptomycin, and 10 μg/ml penicillin. Oocytes were manually defolliculated and injected within 24 hrs of isolation with 3-5 ng of NR1 subunit cRNA and 7-10 ng of NR2 cRNA subunit in a 50 nl volume, or 5-10 ng of AMPA or kainate receptor cRNAs in a 50 nl volume, and incubated in Barth's solution at 18° C. for 1-7 d. Glass injection pipettes had tip sizes ranging from 10-20 microns, and were backfilled with mineral oil.
(§2) Two electrode voltage-clamp recordings were made 2-7 days post-injection as previously described. Oocytes were placed in a dual-track plexi-glass recording chamber with a single perfusion line that splits in a Y-configuration to perfuse two oocytes. Dual recordings were made at room temperature (23° C.) using two Warner OC725B two-electrode voltage clamp amplifiers, arranged as recommended by the manufacturer. Glass microelectrodes (1-10 Megaohms) were filled with 300 mM KCl (voltage electrode) or 3 M KCl (current electrode). The bath clamps communicated across silver chloride wires placed into each side of the recording chamber, both of which were assumed to be at a reference potential of 0 mV. Oocytes were perfused with a solution comprised of (in mM) 90 NaCl, 1 KCl, 10 HEPES, and 0.5 BaCl2; pH was adjusted by addition of 1-3 M NaOH of HC1 to 7.4. Oocytes were recorded under voltage clamp at −40 mV. […] In some experiments, 10 μM EDTA was obtained by adding a 1:1000 dilution of 10 mM EDTA, in order to chelate contaminant divalent ions such as Zn^2+. […] Concentration effect curves consisting of 4 to 8 concentrations were obtained in this manner. The baseline leak current at −40 mV was measured before and after recording, and the full recording linearly corrected for any change in leak current. […] Each experiment consisted of recordings from 3 to 10 oocytes obtained from a single frog. Results from multiple experiments were pooled, and the average percent responses at antagonist concentrations were fitted by the equation,
(§3) Percent Response=(100−minimum)/(1+([conc]/IC50)nH)+minimum
For orientation: In two-electrode clamp one electrode senses voltage and the other passes current.

The target of experiment [2] is NR1/NR2D (Rattus norvegicus, UniProt P35439+Q62645). As to the kind of experiment: Two electrode voltage clamp, Xenopus oocytes expressing recombinant NR1/NR2D. The settings on record: for remaining activity at 100 µM: read-out: 2D percent effect at the maximum tested concentration. As to the method: as §1, §2, §3
The target of experiment [3] is NR1/NR2A (Rattus norvegicus, UniProt P35439+Q00959). The experiment can be described thus: Two electrode voltage clamp, Xenopus oocytes expressing recombinant NR1/NR2A. The settings on record: for IC50: logistic fit, minimum forced to 0, read-out: 2A IC50. How it is done:
as §1, §2, §3

Experiment [4] concerns the target NR1/NR2C (Rattus norvegicus, UniProt P35439+Q00961). As to the kind of experiment: Two electrode voltage clamp, Xenopus oocytes expressing recombinant NR1/NR2C. The settings on record: for remaining activity at 100 µM: read-out: 2C percent effect at the maximum tested concentration. How it is done:
as §1, §2, §3

Setting [5] is: at 100 μM, read-out: 2B percent effect at the maximum tested concentration.
The mark [6] stands for this setting: at 100 μM, read-out: 2A percent effect at the maximum tested concentration.
Setting [7] is: read-out: 2B percent effect at the maximum tested concentration.
[8] abbreviates: read-out: 2A percent effect at the maximum tested concentration.
Where [9] appears, read: logistic fit, minimum forced to 0, read-out: 2D IC50.
The mark [10] stands for this setting: logistic fit, minimum forced to 0, read-out: 2B IC50.
The mark [11] stands for this setting: logistic fit, minimum forced to 0, read-out: 2C IC50.

Like-named read-outs stand apart in the source and are kept apart here.

Sequence of NR1/NR2A (Q00959 23-1464, other chains not shown): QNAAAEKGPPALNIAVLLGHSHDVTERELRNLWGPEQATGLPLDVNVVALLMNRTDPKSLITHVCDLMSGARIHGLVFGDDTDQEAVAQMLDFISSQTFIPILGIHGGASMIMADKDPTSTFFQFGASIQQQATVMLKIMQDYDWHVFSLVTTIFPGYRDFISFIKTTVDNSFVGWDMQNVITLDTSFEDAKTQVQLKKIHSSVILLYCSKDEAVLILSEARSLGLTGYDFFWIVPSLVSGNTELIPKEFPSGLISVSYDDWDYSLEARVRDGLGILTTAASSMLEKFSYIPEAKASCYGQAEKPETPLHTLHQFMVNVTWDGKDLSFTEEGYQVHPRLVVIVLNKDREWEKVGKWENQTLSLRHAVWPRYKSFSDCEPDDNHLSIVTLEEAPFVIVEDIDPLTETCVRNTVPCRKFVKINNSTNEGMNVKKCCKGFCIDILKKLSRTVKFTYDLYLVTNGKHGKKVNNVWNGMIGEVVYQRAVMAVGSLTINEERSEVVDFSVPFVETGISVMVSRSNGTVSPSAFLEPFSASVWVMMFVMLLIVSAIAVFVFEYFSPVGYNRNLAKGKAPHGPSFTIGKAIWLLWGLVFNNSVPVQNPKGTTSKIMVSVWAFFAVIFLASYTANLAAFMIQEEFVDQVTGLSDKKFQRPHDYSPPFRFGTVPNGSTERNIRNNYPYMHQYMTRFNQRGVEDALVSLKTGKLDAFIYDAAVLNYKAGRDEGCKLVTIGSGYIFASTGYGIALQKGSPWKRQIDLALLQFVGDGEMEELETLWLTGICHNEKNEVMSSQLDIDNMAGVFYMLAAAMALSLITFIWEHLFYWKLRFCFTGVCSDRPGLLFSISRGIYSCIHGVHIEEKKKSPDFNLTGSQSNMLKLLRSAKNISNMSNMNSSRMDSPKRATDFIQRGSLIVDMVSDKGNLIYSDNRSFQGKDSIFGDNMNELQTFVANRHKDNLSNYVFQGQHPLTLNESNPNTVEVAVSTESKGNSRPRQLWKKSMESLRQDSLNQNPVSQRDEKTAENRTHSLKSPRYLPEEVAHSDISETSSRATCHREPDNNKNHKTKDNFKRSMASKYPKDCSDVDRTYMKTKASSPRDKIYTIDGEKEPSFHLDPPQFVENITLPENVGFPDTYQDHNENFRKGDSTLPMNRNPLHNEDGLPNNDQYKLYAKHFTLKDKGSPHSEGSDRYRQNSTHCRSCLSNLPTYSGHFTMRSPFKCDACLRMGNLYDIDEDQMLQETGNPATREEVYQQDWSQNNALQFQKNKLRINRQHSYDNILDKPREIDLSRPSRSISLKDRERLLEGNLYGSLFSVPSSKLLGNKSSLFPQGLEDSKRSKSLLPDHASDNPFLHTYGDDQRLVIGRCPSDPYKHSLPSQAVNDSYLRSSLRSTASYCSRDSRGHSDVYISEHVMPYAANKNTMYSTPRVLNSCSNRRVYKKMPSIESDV
Sequence of NR1/NR2B (Q00960 27-1482, other chains not shown): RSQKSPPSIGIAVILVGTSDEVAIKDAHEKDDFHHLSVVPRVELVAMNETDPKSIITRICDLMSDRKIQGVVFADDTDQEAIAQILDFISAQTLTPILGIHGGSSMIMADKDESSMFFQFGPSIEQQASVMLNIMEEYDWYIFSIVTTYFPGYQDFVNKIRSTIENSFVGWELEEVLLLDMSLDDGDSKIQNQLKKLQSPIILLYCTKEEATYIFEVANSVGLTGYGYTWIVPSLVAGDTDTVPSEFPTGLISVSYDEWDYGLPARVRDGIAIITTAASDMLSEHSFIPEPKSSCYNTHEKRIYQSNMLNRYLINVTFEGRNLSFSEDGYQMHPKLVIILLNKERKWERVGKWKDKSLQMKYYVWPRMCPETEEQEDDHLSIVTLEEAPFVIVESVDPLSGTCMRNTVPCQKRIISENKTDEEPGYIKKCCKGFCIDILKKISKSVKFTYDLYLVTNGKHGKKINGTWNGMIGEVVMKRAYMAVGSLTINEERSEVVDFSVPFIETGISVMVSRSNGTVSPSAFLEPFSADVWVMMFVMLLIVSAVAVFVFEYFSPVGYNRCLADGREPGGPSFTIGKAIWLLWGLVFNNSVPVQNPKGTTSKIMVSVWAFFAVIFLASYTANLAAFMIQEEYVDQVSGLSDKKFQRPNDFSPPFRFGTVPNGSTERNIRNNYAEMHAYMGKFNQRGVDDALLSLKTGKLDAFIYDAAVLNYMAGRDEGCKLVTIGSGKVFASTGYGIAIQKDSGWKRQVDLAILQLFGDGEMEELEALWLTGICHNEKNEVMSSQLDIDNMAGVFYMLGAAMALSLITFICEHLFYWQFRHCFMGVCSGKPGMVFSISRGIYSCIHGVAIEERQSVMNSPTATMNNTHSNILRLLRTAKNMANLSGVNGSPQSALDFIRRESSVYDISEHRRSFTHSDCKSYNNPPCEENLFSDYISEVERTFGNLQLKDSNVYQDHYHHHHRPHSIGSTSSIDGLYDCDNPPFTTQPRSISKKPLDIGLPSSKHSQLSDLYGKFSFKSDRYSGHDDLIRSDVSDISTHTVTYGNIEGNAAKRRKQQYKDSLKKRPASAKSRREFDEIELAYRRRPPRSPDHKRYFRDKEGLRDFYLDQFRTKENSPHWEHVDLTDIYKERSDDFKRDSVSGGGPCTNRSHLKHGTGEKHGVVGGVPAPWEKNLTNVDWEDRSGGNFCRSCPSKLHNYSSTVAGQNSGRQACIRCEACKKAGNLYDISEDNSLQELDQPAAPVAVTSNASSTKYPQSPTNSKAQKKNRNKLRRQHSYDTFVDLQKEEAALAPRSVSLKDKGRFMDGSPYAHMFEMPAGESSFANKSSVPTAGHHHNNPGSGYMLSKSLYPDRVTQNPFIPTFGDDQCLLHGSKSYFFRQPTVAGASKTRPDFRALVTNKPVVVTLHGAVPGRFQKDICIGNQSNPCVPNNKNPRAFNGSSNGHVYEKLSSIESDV
Sequence of NR1/NR2C (Q00961 20-1237, other chains not shown): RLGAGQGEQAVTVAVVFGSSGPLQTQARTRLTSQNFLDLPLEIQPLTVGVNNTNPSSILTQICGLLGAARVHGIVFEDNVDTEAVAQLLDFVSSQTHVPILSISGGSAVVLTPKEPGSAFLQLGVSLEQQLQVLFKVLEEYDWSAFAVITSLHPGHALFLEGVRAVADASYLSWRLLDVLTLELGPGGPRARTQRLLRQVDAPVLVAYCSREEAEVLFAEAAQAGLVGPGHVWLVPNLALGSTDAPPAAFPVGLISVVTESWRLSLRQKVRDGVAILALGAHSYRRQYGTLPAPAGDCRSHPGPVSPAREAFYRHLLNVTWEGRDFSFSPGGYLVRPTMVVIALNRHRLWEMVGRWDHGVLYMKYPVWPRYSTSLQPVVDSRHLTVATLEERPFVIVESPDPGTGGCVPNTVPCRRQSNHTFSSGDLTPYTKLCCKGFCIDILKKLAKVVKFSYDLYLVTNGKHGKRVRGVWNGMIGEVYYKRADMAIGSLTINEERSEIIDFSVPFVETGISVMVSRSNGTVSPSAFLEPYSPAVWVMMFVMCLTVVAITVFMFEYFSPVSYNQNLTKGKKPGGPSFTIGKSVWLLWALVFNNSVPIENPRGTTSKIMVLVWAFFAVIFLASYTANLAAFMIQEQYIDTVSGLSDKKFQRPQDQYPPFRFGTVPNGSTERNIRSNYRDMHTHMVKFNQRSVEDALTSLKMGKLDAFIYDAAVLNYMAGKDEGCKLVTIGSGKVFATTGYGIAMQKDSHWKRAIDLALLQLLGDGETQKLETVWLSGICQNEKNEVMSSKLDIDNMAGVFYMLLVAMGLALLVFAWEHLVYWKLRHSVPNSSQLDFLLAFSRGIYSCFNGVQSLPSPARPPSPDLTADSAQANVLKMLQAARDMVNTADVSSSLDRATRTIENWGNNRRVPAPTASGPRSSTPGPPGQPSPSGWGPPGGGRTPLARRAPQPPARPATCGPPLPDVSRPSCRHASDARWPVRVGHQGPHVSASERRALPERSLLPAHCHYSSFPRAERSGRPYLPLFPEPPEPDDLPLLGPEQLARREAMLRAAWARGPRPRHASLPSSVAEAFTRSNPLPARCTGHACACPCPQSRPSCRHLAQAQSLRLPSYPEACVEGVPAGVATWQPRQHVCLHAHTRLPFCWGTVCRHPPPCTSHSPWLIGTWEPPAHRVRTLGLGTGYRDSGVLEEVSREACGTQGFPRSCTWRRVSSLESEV

With `O=C(Nc1cccc2ccccc12)c1ccc(OC(=O)N2CCCCC2)cc1` [1063-7], the remaining activity at 100 µM is 98% in experiment [1] (setting [5]), 84% in experiment [2] and 135% in experiment [3] (setting [6]).
For the molecule `CC(C)N(C(=O)Oc1ccc(C(=O)Nc2ccc3[nH]ccc3c2)cc1)C(C)C` [1063-16], the figures for the remaining activity at 100 µM in experiment [1] (setting [7]) and in experiment [3] (setting [8]) were 81% and 100%, respectively. Also, the figures for the IC50 in experiment [2] and in experiment [4] were 44 µM and 30 µM, respectively.
Take `CCN(CC)C(=O)c1ccc(C(=O)Nc2cccc3cc[nH]c23)cc1` [1063-27]: the remaining activity at 100 µM worked out at 83% in experiment [1] (setting [5]), 82% in experiment [2] and 93% in experiment [4]. Moreover, the IC50 in experiment [3] is 497 µM.
For the molecule `O=C(O)CCC(=O)N1N=C(c2c(-c3ccccc3)c3cc(Cl)ccc3[nH]c2=O)CC1c1ccccc1` (centres unmarked) [compound 1149], in experiment [2] (setting [9]), the IC50 stood at 32 µM.
`CCN(CC)C(=O)Oc1ccc(C(=O)Nc2cc(C)cc(C)c2)cc1` [1063-17]: the IC50 in experiment [1] was determined as 89 µM; in experiment [2], 8 µM; in experiment [4], 18 µM. The remaining activity at 100 µM in experiment [3] (setting [8]) is 79%.
Regarding `O=C(O)CCC(=O)N1N=C(c2c(-c3ccccc3)c3cc(Br)ccc3[nH]c2=O)CC1c1ccccc1` (centres unmarked) [compound 1183], in experiment [2] (setting [9]), the IC50 amounted to 20 µM.
Take `O=C(O)CCC(=O)N1N=C(c2c(-c3ccccc3)c3cc(Br)ccc3[nH]c2=O)CC1c1ccccc1Cl` (centres unmarked) [compound 1209]: the IC50 came out at 35 µM in experiment [1] (setting [10]), 13 µM in experiment [2] (setting [9]), 22 µM in experiment [4] (setting [11]) and 79 µM in experiment [3].
As to `C=CCN(CC=C)C(=S)Oc1ccc(C(=O)Nc2cccc3ccccc23)cc1` [compound 1380], in experiment [2] (setting [9]), the IC50 turned out to be 279 µM.
On to `O=C(O)c1ccc(C(=O)Nc2cccc3cc[nH]c23)cc1` [1063-28], for which the remaining activity at 100 µM turned out to be 95% in experiment [1] (setting [5]), 89% in experiment [2] and 98% in experiment [4]. Also, the IC50 in experiment [3] worked out at 245 µM.
Regarding `O=C(Nc1cccc2ccccc12)c1ccc(OC(=O)N2CCCC2)cc1` [1063-6], the IC50 in experiment [1] (setting [10]) came out at 502 µM; in experiment [2] (setting [9]), 257 µM; in experiment [4] (setting [11]), 135 µM. Besides, the remaining activity at 100 µM in experiment [3] (setting [6]) came out at 87%.
As to `Cc1ccc(C2CC(c3c(-c4ccccc4)c4cc(Br)ccc4[nH]c3=O)=NN2C(=O)CCC(=O)O)cc1` (centres unmarked) [compound 1185], the IC50 was 59 µM in experiment [1] (setting [10]), 9 µM in experiment [2] (setting [9]), 16 µM in experiment [4] (setting [11]) and 140 µM in experiment [3].
The corresponding values for `O=C(Nc1cccc2ccccc12)c1ccc2oc(=O)[nH]c2c1` [1063-31] are 334 µM, 366 µM, 526 µM and 550 µM.
`CCN(CC)C(=O)Oc1cccc(C(=O)Nc2cccc3ccccc23)c1` [1063-24]: the remaining activity at 100 µM in experiment [1] (setting [5]) was 95%; in experiment [2], 84%; in experiment [4] it was 93%; in experiment [3] (setting [6]) it was 84%.
As for `CN(C)C(=O)Oc1ccc(C(=O)Nc2cccc3ccccc23)cc1` [1063-3], the IC50 worked out at 1450 µM in experiment [1], 194 µM in experiment [2] and 619 µM in experiment [4]. Also, the remaining activity at 100 µM in experiment [3] (setting [8]) was found to be 110%.
Consider `Cn1c(=O)oc2ccc(C(=O)Nc3cccc4ccccc34)cc21` [1063-29], for which the remaining activity at 100 µM in experiment [1] (setting [5]) is 81%; in experiment [2] it was 75%; in experiment [4], 80%; in experiment [3] (setting [6]), 92%.
The like results for `O=C(Nc1cccc2ccccc12)c1ccc(Oc2nc3ccccc3s2)cc1` [1063-23] were, in that order, 85%, 91%, 89% and 91%.
With `O=C(O)CCC(=O)N1N=C(c2c(-c3ccccc3)c3cc(Br)ccc3[nH]c2=O)CC1c1ccccc1F` (centres unmarked) [compound 1178], the half-inhibitory concentration (IC50) in experiment [2] (setting [9]) is 21 µM.
`CCN(CC)C(=S)Oc1ccc(C(=O)Nc2ccc3ccccc3c2)cc1` [1063-0]: the remaining activity at 30 µM in experiment [1] (at 30 μM, read-out: 2B percent effect at the maximum tested concentration) stood at 99%; in experiment [3] (at 30 μM, read-out: 2A percent effect at the maximum tested concentration), 101%. In addition, the IC50 was determined as 91 µM in experiment [2] (setting [9]) and 243 µM in experiment [4] (setting [11]).
For the molecule `CCCCN(CCCC)C(=O)Oc1ccc(C(=O)Nc2cccc3ccccc23)cc1` [1063-8], the remaining activity at 100 µM in experiment [1] (setting [5]) stood at 88%; in experiment [2], 87%; in experiment [3] (setting [6]), 135%.
For the molecule `O=C(Nc1cccc2ccccc12)c1ccc(OC(=O)C2CC2)cc1` [1063-10], the remaining activity at 100 µM in experiment [1] (setting [5]) is 92%; in experiment [2], 81%; in experiment [4] it was 86%; in experiment [3] (setting [6]) it was 111%.
Consider `CCN(CC)C(=O)Oc1ccc(C(=O)Nc2cccc3c2CCCC3)cc1` [1063-18], for which the IC50 is 214 µM in experiment [1], 20 µM in experiment [2] and 23 µM in experiment [4]. Further, in experiment [3] (setting [8]), the remaining activity at 100 µM turned out to be 95%.
Turning to `CCN(C)C(=O)Oc1ccc(C(=O)Nc2cccc3cc[nH]c23)cc1` [1063-30], the remaining activity at 100 µM in experiment [1] (setting [7]) is 71%; in experiment [3] (setting [8]) it was 89%. Further, the IC50 in experiment [2] worked out at 56 µM; in experiment [4], 72 µM.
Regarding `CC(C)N(C(=O)Oc1ccc(C(=O)Oc2cccc3c(N)cccc23)cc1)C(C)C` [1063-14], the remaining activity at 100 µM in experiment [1] (setting [5]) turned out to be 95%; in experiment [2] it was 75%; in experiment [4], 85%; in experiment [3] (setting [6]), 104%.
For the molecule `CCN(CC)C(=O)Nc1ccc(C(=O)Nc2cccc3ccccc23)cc1` [1063-11], the remaining activity at 100 µM in experiment [1] (setting [5]) was found to be 88%; in experiment [3] (setting [6]), 102%. For the same molecule, the IC50 in experiment [2] (setting [9]) is 527 µM; in experiment [4] (setting [11]), 687 µM.
Regarding `CCN(CC)C(=O)Oc1ccc(C(=O)Nc2cc(C)cc3c2NCC3)cc1` [1063-32], the IC50 in experiment [1] was determined as 215 µM; in experiment [2] it was 8 µM; in experiment [4], 20 µM. Also, the remaining activity at 100 µM in experiment [3] (setting [8]) is 81%.
Regarding `CCN(CC)C(=S)Oc1ccc(C(=O)Nc2ccc(F)cc2)cc1` [compound 1379], the remaining activity at 100 µM in experiment [1] (setting [5]) worked out at 88%; in experiment [3] (setting [6]) it was 99%. In addition, the IC50 in experiment [2] (setting [9]) is 55 µM; in experiment [4] (setting [11]) it was 247 µM.
With `O=C(O)CCC(=O)N1N=C(c2c(-c3ccccc3)c3cc(Cl)ccc3[nH]c2=O)CC1c1cccc(Br)c1` (centres unmarked) [compound 1176], the IC50 was 30 µM in experiment [1] (setting [10]), 4 µM in experiment [2] (setting [9]), 7 µM in experiment [4] (setting [11]) and 24 µM in experiment [3].
Take `CCN(CC)C(=O)Oc1ccc(C(=O)Nc2ccc3c(c2)CCCC3)cc1` [1063-19]: the values for the remaining activity at 100 µM in experiment [1] (setting [7]) and in experiment [3] (setting [8]) were 74% and 89%, respectively. In addition, the IC50 turned out to be 26 µM in experiment [2] and 58 µM in experiment [4].
`O=C(O)CCC(=O)N1N=C(c2c(-c3ccccc3)c3cc(Br)ccc3[nH]c2=O)CC1c1ccc(Br)cc1` (centres unmarked) [compound 997]: the IC50 worked out at 19 µM in experiment [1] (setting [10]), 3 µM in experiment [2] (setting [9]), 5 µM in experiment [4] (setting [11]) and 78 µM in experiment [3].
For `O=C(Nc1cccc2ccccc12)c1ccc(OC(=S)N2CCOCC2)cc1` [compound 1374], the IC50 in experiment [2] (setting [9]) was over 1000 µM.
Still for that read-out and setting: then `O=c1[nH]c2ccc(Br)cc2c(-c2ccccc2)c1C1=NNC(c2ccc(F)cc2)C1` (centres unmarked) [compound 1248], with over 300 µM.

The IC50 is the concentration needed to halve the response being measured.
